From patent publication US10316056B2, “Chemical compounds and use thereof for improving muscular quality” (BIOPHYTIS, priority 2014, dated 2019) come the findings set out here.

Each structure is given as a SMILES string.

Data set [1] is described as follows: in vivo. The settings on record: male, Wistar, rat, po, 10 mg/kg.
Procedure: (§4) The pharmacokinetics of the compounds were evaluated orally using male Wistar rats (Charles River). […] The novel compounds according to the invention were administered at a dose of 10 mg/kg of body weight in the form of a mixture of 4 to 6 products. After administration, the blood was sampled from the tail at t=0.25 h, 0.5 h, 1 h, 3 h, 6 h and 8 h. The blood samples were centrifuged and the plasmas removed.
For data set [2], the system named is myostatin gene expression in C2C12 cells. The data set is described as follows: Inhibition of myostatin expression in C2C12 cells (qPCR). Type of data set: cell-based. The settings on record: Mus musculus, percentage myostatin gene expression in cells in contact with the compounds related to control cells, C2C12, 6 h. Put shortly:
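C2C12 myoblasts differentiated to myotubes for 5 days in 2% serum, then treated 6 h with compounds in serum-free, low-glucose (1 g/l) DMEM; IGF-1 100 ng/ml as reference. Myostatin mRNA quantified by RT-qPCR, expressed relative to untreated control as R=2^-ΔΔCt.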
On the technique in general: In qPCR the cycle at which signal appears reflects the starting amount.

The conditions of data set [3]: rat, in vivo, po; for Cexp (coefficient of exposure): male, Wistar.
Procedure: as §4
In data set [4] the test system is myogenin transcripts. The data set is described as follows: Mice subjected to a high-fat diet: myogenin transcripts of the Soleus muscle. Type of data set: in vivo, C57BL/6J mice. The settings on record: 5 mg/kg orally; high-fat diet for 6 weeks; FIG. 5B. Here is the method:
(§1) The 20E as comparative compound and the compounds according to the invention (Nos. 51 and 93) were administered orally, at a dose of 5 mg/kg of body weight, to 12-week-old C57BL/6J mice subjected to a high-fat diet for 6 weeks. The effect of the compounds on the weight and the amount of proteins of the Soleus muscle and also the transcripts of genes involved in myogenesis were evaluated.
Myogenesis, which is the process for forming muscle tissues, is controlled by several myogenic transcription factors which act as end effectors of the signaling cascade and produce transcripts involved in the various stages of development. The roles of the transcription factors have been described in various journals (Sabourin and Rudnicki 2000 and Le Grand and Rudnicki 2007). The Pax7 protein (Paired-box protein 7) maintains a population of satellite cells in quiescence and, with Myf5 (Myogenic factor 5), plays a role in the expansion of activated myoblasts. The MyoD protein (Myoblast Determination protein) appears to determine the differentiation potential of activated myoblasts, and cooperates with myogenin and the MEF2 (Myocyte Enhancer Factor 2) protein to control and bring about differentiation. Finally, MRF4 (Muscle-specific Regulatory Factor 4) is required for hypertrophy, even though it probably plays other roles. […]
(§2) The relative differences in gene expression between treatments are expressed as increase or decrease in the number of cycle times [Ct] compared with the control group, the [Ct] value of each gene having been standardized with the beta-actin gene.
(§3) The in vivo study is carried out by evaluating the effect of 20E as comparative compound and of the molecules according to the invention (Nos. 51 and 93) administered orally, at a dose of 5 mg/kg of body weight, to C57BL/6 mice subjected to a high-fat diet for 6 weeks. The effect of the molecules on the weight and the amount of proteins of the Soleus muscle and also the transcripts of genes involved in myogenesis were evaluated.

Data set [5] concerns myostatin transcript. The data set is described as follows: Mice subjected to a high-fat diet: myostatin transcript of the Soleus muscle. Format: in vivo, C57BL/6J mice. The settings on record: 5 mg/kg orally; high-fat diet for 6 weeks; FIG. 4. The method, then:
as §1
In order to carry out the gene expression analysis, the muscle tissues were homogenized in a Trizol solution (500 μl), and the RNAs were extracted and purified using the phenol/chloroform method. An amount of […] of RNA was used as template for the synthesis of the first cDNA strand using oligo (dT)s as primers and the AMV reverse transcriptase enzyme as described by the supplier (Applied Biosystems 4368814). The q-PCRs were then carried out using a 7900HT machine equipped with a rapid system for real-time detection by PCR (Applied Biosystems) and the standard qPCR program (1 cycle of 95° C. for 15 min, 40 cycles of 95° C. for 15 s and 60° C. for 1 min, a 60-95° C. melt curve for the Sybergreen probes). The experiments are carried out in a Sybergreen SYBR master mix (Applied Biosystems) containing the 100 ng cDNA samples and a set of primers which bind to the two different exons and at a final concentration of 200 nM.
as §2, §3

As for `CCC(CC)C(=O)N(CCOC)C(C)[C@H]1CC[C@@]2(O)C3=CC(=O)[C@@H]4C[C@@H](O)[C@@H](O)C[C@]4(C)C3CC[C@]12C` (stereo partly drawn) [Compound 51, 2-ethyl-N-(2-methoxyethyl)-N-[1-[(2S,3R,5R,10R,13R,14S,17S)-2,3,14-trihydroxy-10,13-dimethyl-6-oxo-2,3,4,5,9,11,12,15,16,17-decahydro-1H-cyclopenta[a]phenanthren-17-yl]ethyl]butanamide], in data set [1], the area under the curve (AUC) (as a rule, concentration integrated over time) is 273 ng·h/mL; the peak level (Cmax) was 174 ng/mL; the time of peak concentration (Tmax) (usually the time at which the peak concentration occurs) stood at 15 min. The molecule further displayed a mrna remaining at 10 µM in data set [2] of less than 70%. Moreover, in data set [3], the “Cexp (coefficient of exposure)” value worked out at 3.6 and the “plasma exposure compared with 20E” value was “better plasma exposure”. The “transcript of the myogenin gene” value in data set [4] is “increase”. Besides, the “myostatin expression in the Soleus muscle” value in data set [5] was “comparably inhibit”.
As for `CCSCC(=O)[C@H]1CC[C@@]2(O)C3=CC(=O)[C@@H]4C[C@@H](O)[C@@H](O)C[C@]4(C)C3CC[C@]12C` (stereo partly drawn) [Compound 93, (2S,3R,5R,10R,13R,14S,17S)-17-(2-ethylsulfanylacetyl)-2,3,14-trihydroxy-10,13-dimethyl-2,3,4,5,9,11,12,15,16,17-decahydro-1H-cyclopenta[a]phenanthren-6-one], in data set [1], the AUC came to 785 ng·h/mL; the highest concentration (Cmax) (as a rule, the peak of the concentration-time curve) worked out at 230 ng/mL; the Tmax was found to be 30 min. The molecule also came in with a mrna remaining at 10 µM in data set [2] of less than 70%. Also, in data set [3], the “Cexp (coefficient of exposure)” value is given as 10.3 and the “plasma exposure compared with 20E” value is reported as “better plasma exposure”. In data set [4], the “transcript of the myogenin gene” value is listed as “increase”. For the same molecule, the “myostatin expression in the Soleus muscle” value in data set [5] is “comparably inhibit”.
